Test: Solubility experiment in cyclohexanone (CHON)
Assay type: physicochemical
Settings: normal temperature/pressure, whether 0.1 wt % or more was dissolved
Description: In order to confirm the solubility in the solvent used in the solution process of the compounds prepared in the Preparation Examples and the comparative compounds, each of them was dissolved in the solvent cyclohexanone (CHON) under normal temperature/pressure conditions, and it was confirmed whether 0.1 wt % or more was dissolved.

SMILES | Solubility, Solvent CHON
CC(C)(C)c1ccc(N(c2ccc(C(C)(C)C)cc2)c2ccc3c4c5ccc6c(c5ccc4n(-c4ccccc4)c3c2)c2ccc(-c3cc(-c4ccc5c7c8ccc9c(c8ccc7n(-c7ccccc7)c5c4)c4ccc(N(c5ccc(C(C)(C)C)cc5)c5ccc(C(C)(C)C)cc5)cc4n9-c4ccccc4)cc(-c4ccc5c7c8ccc9c(c8ccc7n(-c7ccccc7)c5c4)c4ccc(N(c5ccc(C(C)(C)C)cc5)c5ccc(C(C)(C)C)cc5)cc4n9-c4ccccc4)c3)cc2n6-c2ccccc2)cc1 [Compound 5] | ○ (Evaluation list (○): 0.1 wt. % or more soluble)
Cc1cccc(N(c2ccc3c4c5ccc6c(c5ccc4n(-c4ccccc4)c3c2)c2ccc(-c3cc(-c4ccc5c7c8ccc9c(c8ccc7n(-c7ccccc7)c5c4)c4ccc(N(c5cccc(C)c5)c5cccc7c5oc5ccccc57)cc4n9-c4ccccc4)cc(-c4ccc5c7c8ccc9c(c8ccc7n(-c7ccccc7)c5c4)c4ccc(N(c5cccc(C)c5)c5cccc7c5oc5ccccc57)cc4n9-c4ccccc4)c3)cc2n6-c2ccccc2)c2cccc3c2oc2ccccc23)c1 [Compound 4] | ○ (Evaluation list (○): 0.1 wt. % or more soluble)
Cc1cccc(N(c2cccc3c2oc2ccccc23)c2cccc3c2c2c4ccc5c(c4ccc2n3-c2ccccc2)c2c(N(c3cccc4c3c3c6ccc7c(c6ccc3n4-c3ccccc3)c3c(N(c4cccc(C)c4)c4cccc6c4oc4ccccc46)cccc3n7-c3ccccc3)c3cccc4c3c3c6ccc7c(c6ccc3n4-c3ccccc3)c3c(N(c4cccc(C)c4)c4cccc6c4oc4ccccc46)cccc3n7-c3ccccc3)cccc2n5-c2ccccc2)c1 [Compound 19] | ○ (Evaluation list (○): 0.1 wt. % or more soluble)
Cc1cccc(N(c2ccc3c(c2)c2c4ccc5c(c4ccc2n3-c2ccccc2)c2cc(N(c3ccc4c(c3)c3c6ccc7c(c6ccc3n4-c3ccccc3)c3cc(N(c4cccc(C)c4)c4cccc6c4oc4ccccc46)ccc3n7-c3ccccc3)c3ccc4c(c3)c3c6ccc7c(c6ccc3n4-c3ccccc3)c3cc(N(c4cccc(C)c4)c4cccc6c4oc4ccccc46)ccc3n7-c3ccccc3)ccc2n5-c2ccccc2)c2cccc3c2oc2ccccc23)c1 [Compound 17] | ○ (Evaluation list (○): 0.1 wt. % or more soluble)
Cc1cccc(N(c2ccc3c4c5ccc6c(c5ccc4n(-c4ccccc4)c3c2)c2ccc(Oc3cccc(-c4cc(-c5cccc(Oc7ccc8c9c%10ccc%11c(c%10ccc9n(-c9ccccc9)c8c7)c7ccc(N(c8cccc(C)c8)c8cccc9c8oc8ccccc89)cc7n%11-c7ccccc7)c5)cc(-c5cccc(Oc7ccc8c9c%10ccc%11c(c%10ccc9n(-c9ccccc9)c8c7)c7ccc(N(c8cccc(C)c8)c8cccc9c8oc8ccccc89)cc7n%11-c7ccccc7)c5)c4)c3)cc2n6-c2ccccc2)c2cccc3c2oc2ccccc23)c1 [Compound 15] | ○ (Evaluation list (○): 0.1 wt. % or more soluble)
Cc1cccc(N(c2ccc3c4c5ccc6c(c5ccc4n(-c4ccccc4)c3c2)c2ccc(Oc3ccc(-c4cc(-c5ccc(Oc7ccc8c9c%10ccc%11c(c%10ccc9n(-c9ccccc9)c8c7)c7ccc(N(c8cccc(C)c8)c8cccc9c8oc8ccccc89)cc7n%11-c7ccccc7)cc5)cc(-c5ccc(Oc7ccc8c9c%10ccc%11c(c%10ccc9n(-c9ccccc9)c8c7)c7ccc(N(c8cccc(C)c8)c8cccc9c8oc8ccccc89)cc7n%11-c7ccccc7)cc5)c4)cc3)cc2n6-c2ccccc2)c2cccc3c2oc2ccccc23)c1 [Compound 16] | ○ (Evaluation list (○): 0.1 wt. % or more soluble)
c1ccc(-n2c3ccccc3c3cc(-c4ccc(N(c5ccc6ccccc6c5)c5ccc6c7c8ccc9c(c8ccc7n(-c7ccccc7)c6c5)c5ccc(N(c6ccc7c8c%10ccc%11c(c%10ccc8n(-c8ccccc8)c7c6)c6ccc(N(c7ccc(-c8ccc%10c(c8)c8ccccc8n%10-c8ccccc8)cc7)c7ccc8ccccc8c7)cc6n%11-c6ccccc6)c6ccc7c8c%10ccc%11c(c%10ccc8n(-c8ccccc8)c7c6)c6ccc(N(c7ccc(-c8ccc%10c(c8)c8ccccc8n%10-c8ccccc8)cc7)c7ccc8ccccc8c7)cc6n%11-c6ccccc6)cc5n9-c5ccccc5)cc4)ccc32)cc1 [Compound 3] | ○ (Evaluation list (○): 0.1 wt. % or more soluble)
Cc1cccc(N(c2ccc3c4c5ccc6c(c5ccc4n(-c4ccccc4)c3c2)c2ccc(N(c3ccc4c5c7ccc8c(c7ccc5n(-c5ccccc5)c4c3)c3ccc(N(c4cccc(C)c4)c4cccc5c4oc4ccccc45)cc3n8-c3ccccc3)c3ccc4c5c7ccc8c(c7ccc5n(-c5ccccc5)c4c3)c3ccc(N(c4cccc(C)c4)c4cccc5c4oc4ccccc45)cc3n8-c3ccccc3)cc2n6-c2ccccc2)c2cccc3c2oc2ccccc23)c1 [Compound 1] | ○ (Evaluation list (○): 0.1 wt. % or more soluble)
Cc1cccc(N(c2ccc3c4c5ccc6c(c5ccc4n(-c4ccccc4)c3c2)c2ccc(Oc3cc(Oc4ccc5c7c8ccc9c(c8ccc7n(-c7ccccc7)c5c4)c4ccc(N(c5cccc(C)c5)c5cccc7c5oc5ccccc57)cc4n9-c4ccccc4)cc(Oc4ccc5c7c8ccc9c(c8ccc7n(-c7ccccc7)c5c4)c4ccc(N(c5cccc(C)c5)c5cccc7c5oc5ccccc57)cc4n9-c4ccccc4)c3)cc2n6-c2ccccc2)c2cccc3c2oc2ccccc23)c1 [Compound 14] | ○ (Evaluation list (○): 0.1 wt. % or more soluble)
CC(C)(C)c1ccc(N(c2ccc(C(C)(C)C)cc2)c2ccc3c4c5ccc6c(c5ccc4n(-c4ccccc4)c3c2)c2ccc(N(c3ccc(C(C)(C)C)cc3)c3cc(N(c4ccc(C(C)(C)C)cc4)c4ccc5c7c8ccc9c(c8ccc7n(-c7ccccc7)c5c4)c4ccc(N(c5ccc(C(C)(C)C)cc5)c5ccc(C(C)(C)C)cc5)cc4n9-c4ccccc4)cc(N(c4ccc(C(C)(C)C)cc4)c4ccc5c7c8ccc9c(c8ccc7n(-c7ccccc7)c5c4)c4ccc(N(c5ccc(C(C)(C)C)cc5)c5ccc(C(C)(C)C)cc5)cc4n9-c4ccccc4)c3)cc2n6-c2ccccc2)cc1 [Compound 12] | ○ (Evaluation list (○): 0.1 wt. % or more soluble)

From patent publication US12532661B2, “Compound and organic light emitting device comprising the same” (LG Chem, Ltd., priority 2020, dated 2026)
